In patent US10006020B2 (LESAFFRE ET COMPAGNIE, priority 2008, dated 2018):
Entries after “also recorded” stand apart in the source; their conditions may differ.

Legend:
[1] = molecular target: T1, Clostridium phytofermentans xylose isomerase (SEQ ID NO: 1) (Lachnoclostridium phytofermentans, UniProt A9KN98); assay: Xylitol inhibition of the xylose isomerase (method names p426H7-XI-Clos); assay type: biochemical
T1 construct: raw extract
Experimental: (§9) 50 ml of cultures of yeast cells were grown to the exponential phase in synthetic minimal medium with 2% glucose. The cells were harvested, washed twice in Tris-HCl buffer (pH 7.5) and disrupted by means of glass beads (Ø=0.45 nm) for 8 min on a Vibrax (Janke & Kunkel, Vibrax-VBR) at 4° C. Cell debris was removed by centrifugation for 10 min at 13,000 rpm. Subsequently, the supernatant was collected and filled up to 2 ml with cold Tris-HCl buffer (pH 7.5) and used as a raw extract for the protein determination and for the measurement of the enzyme activities or the xylitol inhibition.
(§10) The XI activity was performed at 30° C. in a reaction mix (100 mM of Tris-HCl, pH 7.5; 10 mM of MgCl2, 0.23 mM of NADH; 2 U of sorbitol dehydrogenase) with different raw extract concentrations. Additionally, different concentrations of xylitol (10-100 mM) were present in the reaction mix.

[2] = molecular target: T2, Clostridium phytofermentans xylose isomerase, codon-optimized form (plasmid p426H7-opt.XI-Clos; protein SEQ ID NO: 1, ORF SEQ ID NO: 3) (Lachnoclostridium phytofermentans, UniProt A9KN98); assay: Xylitol inhibition of the xylose isomerase, codon-optimized XI gene; assay type: biochemical
Experimental: (§1) 50 ml of cultures of yeast cells were grown to the exponential phase in synthetic minimal medium with 2% glucose. The cells were harvested, washed twice in Tris-HCl buffer (pH 7.5) and disrupted by means of glass beads (Ø=[…]) for 8 min on a Vibrax (Janke & Kunkel, Vibrax-VBR) at 4° C. Cell debris was removed by centrifugation for 10 min at 13,000 rpm. Subsequently, the supernatant was collected and filled up to 2 ml with cold Tris-HCl buffer (pH 7.5) and used as a raw extract for the protein determination and for the measurement of the enzyme activities or the xylitol inhibition.
(§2) Recombinant yeast cells with the vector p426H7-opt.XI-Piro or the vector p426HXT7-6HIS, respectively, served as a comparison. […] The acceptance of NADH as a measured variable was determined spectrophotometrically at a wave length of 340 nm. The reaction was started by adding xylose. […]
(§3) K was determined via the equation Km′=Km′=Km*(1+i/Ki), i being the xylitol concentration used and Km′ being the apparent Km value at the corresponding xylitol concentration.
(§4) The strain CEN.PK2-1C transformed with the plasmid p426H7-opt.XI-Clos and p426H7-opt.XI-Piro, respectively, was grown over night in synthetic complete medium with 2% glucose and no uracil. Raw extracts were prepared and quantitative enzyme tests with constant xylitol concentrations of 10-100 mM were performed.

[3] = molecular target: Piromyces sp. E2 xylose isomerase, codon-optimized (plasmid p426H7-opt.XI-Piro) (Piromyces sp. E2, UniProt A0ACD6B9F5); assay: Xylitol inhibition of the xylose isomerase, comparison enzyme; assay type: biochemical
Sequence of Piromyces sp. E2 xylose isomerase, codon-optimized (plasmid p426H7-opt.XI-Piro) (A0ACD6B9F5 1-437): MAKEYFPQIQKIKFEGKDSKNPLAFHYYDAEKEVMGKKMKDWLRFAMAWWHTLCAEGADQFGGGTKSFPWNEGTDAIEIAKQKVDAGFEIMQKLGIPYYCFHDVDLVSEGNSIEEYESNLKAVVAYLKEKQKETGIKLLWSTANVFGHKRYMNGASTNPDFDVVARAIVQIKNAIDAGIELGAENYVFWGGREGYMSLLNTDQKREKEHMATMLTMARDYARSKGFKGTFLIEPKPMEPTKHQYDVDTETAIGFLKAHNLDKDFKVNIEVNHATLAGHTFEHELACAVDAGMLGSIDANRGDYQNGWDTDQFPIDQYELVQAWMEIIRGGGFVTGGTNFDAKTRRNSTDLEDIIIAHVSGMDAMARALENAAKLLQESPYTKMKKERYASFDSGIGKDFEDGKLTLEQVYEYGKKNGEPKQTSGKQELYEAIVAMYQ
Experimental: as §9, §10

[4] = system: Piromyces sp. E2 xylose isomerase; details: result in words, prior art; cited from earlier work
[5] = molecular target: Clostridium phytofermentans xylose isomerase, native form (plasmid p426H7-XI-Clos; protein SEQ ID NO: 1, ORF SEQ ID NO: 2) (Lachnoclostridium phytofermentans, UniProt A9KN98); assay: Xylose isomerase activity, enzyme kinetics with xylose (raw extract, sorbitol dehydrogenase coupled, NADH 340 nm), native XI gene; assay type: biochemical; details: xylose 6.25-500 mM, 30° C.
Experimental: (§5) The strain CEN.PK2-1C transformed with the plasmid p426H7-XI-Clos and p426H7-opt.XI-Clos, respectively, was grown over night in synthetic complete medium with 2% glucose and no uracil. Raw extracts were prepared and quantitative enzyme tests were performed. A representative result is shown. The values indicated in table 3 are average values from at least 3 independent measurements.
(§6) 50 ml of cultures of yeast cells were grown to the exponential phase in synthetic minimal medium with 2% glucose. The cells were harvested, washed twice in Tris-HCl buffer (pH 7.5) and disrupted by means of glass beads (Ø=[…]) for 8 min on a Vibrax (Janke & Kunkel, Vibrax-VBR) at 4° C. Cell debris was removed by centrifugation for 10 min at 13,000 rpm. […]
(§7) Recombinant yeast cells containing the empty vector p426HXT7-6HIS served as a comparison. […] The acceptance of NADH as a measured variable was determined spectrophotometrically at a wave length of 340 nm. […]
(§8) The strain CEN.PK2-1C transformed with the plasmid p426H7-XI-Clos and p426H7-opt.XI-Clos, respectively, was grown over night in synthetic complete medium with 2% glucose and no uracil. Raw extracts were prepared and quantitative enzyme tests were performed.

[6] = molecular target: T2, Clostridium phytofermentans xylose isomerase, codon-optimized form (plasmid p426H7-opt.XI-Clos; protein SEQ ID NO: 1, ORF SEQ ID NO: 3); assay: Xylose isomerase activity, enzyme kinetics with xylose (raw extract, sorbitol dehydrogenase coupled, NADH 340 nm), codon-optimized XI gene; assay type: biochemical; details: table 3; xylose 6.25-500 mM, 30° C., pH 7.5, raw extract
Experimental: as §5, §6, §7, §8

[7] = substrate: OC1OC[C@@H](O)[C@H](O)[C@H]1O; assay: purified protein, by the assay type; details: other: xylose 6.25-500 mM, 30° C., pH 7.5, raw extract of CEN.PK2-1C
yeast strain MKY09 = assay: Growth test on agar plates with SC medium and 2% xylose as only carbon source; assay type: cell-based, S. cerevisiae; details: SC medium
Description: Growth tests of recombinant S. cerevisiae strains, which include the bacterial D-xylose metabolism with the xylose isomerase from C. phytofermentans. […] The empty vector p426HXT7-6HIS (5A) served as the negative control.
In the yeast strain CEN.PK2-1C, all the genes of the non-oxidative pentose phosphate pathway as well as the xylulokinase (XKS1) and GAL2 were overexpressed. To this end, the endogenous promoters were replaced with the truncated HXT7 promoter.
The obtained PCR products were together with the vector p426HXT7-6HIS linearized with EcoRI/BamHI transformed in yeast and cloned via in vivo recombination into the plasmid between the HXT7 promoter or CYC1 terminator, respectively (FIG. 4). The sequence of the plasmids obtained was verified by means of restriction analysis. […] However, it was not possible to amplify the desired PCR product with the xylose isomerase from the organisms Streptomyces diastaticus and Leifsonia xyli. Both xylose isomerases thus could not be tested on functionality in yeast.
To this end, the codon-optimized XI-ORF was amplified with primers and cloned into the linearized vector p426HXT7-6HIS (see “Execution of the screen”). The sequence of the obtained plasmid p426H7-opt.XI-Clos was verified by means of restriction analysis. To test the functionality of the codon-optimized isomerase, the plasmid p426H7-opt.XI-Clos was transformed in the strain MKY09. […]

[8] = system: xylose isomerase from C. phytofermentans; assay: Measurement of the xylitol inhibition of the xylose isomerase (raw extracts); assay type: biochemical, Clostridium phytofermentans; details: from the determined Ki values
Experimental: as §1, §2, §3, §4

For `OC[C@@H](O)[C@H](O)[C@@H](O)CO` [xylitol], the Ki [1] was 14.2 ± 1.48 mM, the xylitol inhibition ([1]; result in words) was “competitive inhibition; also recorded: significantly less inhibited by xylitol than the xylose isomerase from Piromyces sp.E2; also recorded: only slightly inhibited” and the Ki [2] was 14.5 ± 1.08 mM. For the same molecule, the Ki [3] was 4.67 ± 1.77 mM and the inhibition by xylitol [4] was “strongly inhibited”.

In the case of `OC1OC[C@@H](O)[C@H](O)[C@H]1O` (some centres unmarked) [xylose], the Vmax ([5]; table 3, pH 7.5, raw extract) is reported as 0.0076 μmol/min^−1 protein^−1) mg, the Km ([5]; pH 7.5, raw extract of CEN.PK2-1C) is reported as 61.8 ± 3.4 mM and the Vmax [6] is reported as 0.0344 μmol/min^−1 protein^−1) mg.

B1: Clostridium phytofermentans xylose isomerase, native form (plasmid p426H7-XI-Clos; protein SEQ ID NO: 1, ORF SEQ ID NO: 2) (Lachnoclostridium phytofermentans … (protein)
chain: MKNYFPNVPEVKYEGPNSTNPFAFKYYDANKVVAGKTMKEHCRFALSWWHTLCAGGADPFGVTTMDRTYGNITDPMELAKAKVDAGFELMTKLGIEFFCFHDADIAPEGDTFEESKKNLFEIVDYIKEKMDQTGIKLLWGTANNFSHPRFMHGASTSCNADVFAYAAAKIKNALDATIKLGGKGYVFWGGREGYETLLNTDLGLELDNMARLMKMAVEYGRANGFDGDFYIEPKPKEPTKHQYDFDTATVLAFLRKYGLEKDFKMNIEANHATLAGHTFEHELAMARVNGAFGSVDANQGDPNLGWDTDQFPTDVHSATLAMLEVLKAGGFTNGGLNFDAKVRRGSFEFDDIAYGYIAGMDTFALGLIKAAEIIDDGRIAKFVDDRYASYKTGIGKAIVDGTTSLEELEQYVLTHSEPVMQSGRQEVLETIVNNILFR
B1 gave a Km [7] of 61.85 ± 3.41 mM and a Vmax [7] of 0.0076 μmol/min^−1 mg protein^−1.

B2: Clostridium phytofermentans xylose isomerase, codon-optimized form (plasmid p426H7-opt.XI-Clos; protein SEQ ID NO: 1, ORF SEQ ID NO: 3) (Lachnoclostridium … (protein)
chain: MKNYFPNVPEVKYEGPNSTNPFAFKYYDANKVVAGKTMKEHCRFALSWWHTLCAGGADPFGVTTMDRTYGNITDPMELAKAKVDAGFELMTKLGIEFFCFHDADIAPEGDTFEESKKNLFEIVDYIKEKMDQTGIKLLWGTANNFSHPRFMHGASTSCNADVFAYAAAKIKNALDATIKLGGKGYVFWGGREGYETLLNTDLGLELDNMARLMKMAVEYGRANGFDGDFYIEPKPKEPTKHQYDFDTATVLAFLRKYGLEKDFKMNIEANHATLAGHTFEHELAMARVNGAFGSVDANQGDPNLGWDTDQFPTDVHSATLAMLEVLKAGGFTNGGLNFDAKVRRGSFEFDDIAYGYIAGMDTFALGLIKAAEIIDDGRIAKFVDDRYASYKTGIGKAIVDGTTSLEELEQYVLTHSEPVMQSGRQEVLETIVNNILFR
In the case of B2, the Km [7] is reported as 66.01 ± 1^ mM and the Vmax [7] is reported as 0.0344 μmol/min^−1 mg protein^−1.

B3: xylose isomerase from C. phytofermentans: prokaryotic xylose isomerase of Clostridium phytofermentans, protein SEQ ID NO: 1; gene form not specified at the place (protein)
chain: MKNYFPNVPEVKYEGPNSTNPFAFKYYDANKVVAGKTMKEHCRFALSWWHTLCAGGADPFGVTTMDRTYGNITDPMELAKAKVDAGFELMTKLGIEFFCFHDADIAPEGDTFEESKKNLFEIVDYIKEKMDQTGIKLLWGTANNFSHPRFMHGASTSCNADVFAYAAAKIKNALDATIKLGGKGYVFWGGREGYETLLNTDLGLELDNMARLMKMAVEYGRANGFDGDFYIEPKPKEPTKHQYDFDTATVLAFLRKYGLEKDFKMNIEANHATLAGHTFEHELAMARVNGAFGSVDANQGDPNLGWDTDQFPTDVHSATLAMLEVLKAGGFTNGGLNFDAKVRRGSFEFDDIAYGYIAGMDTFALGLIKAAEIIDDGRIAKFVDDRYASYKTGIGKAIVDGTTSLEELEQYVLTHSEPVMQSGRQEVLETIVNNILFR
modifications: Clostridium phytofermentans
notes: gene form not specified at the place
With B3 the “growth on plates containing xylose” value (yeast strain MKY09) was “good growth” and the “inhibition by xylitol compared with the xylose isomerase from Piromyces sp.E2” value [8] was “significantly less inhibited by xylitol”.
